We go through 2 molecules from US12636272B2, “Method and composition for inhibiting virus infection” (ARJIL BIOTECH HOLDING COMPANY LIMITED, priority 2020, dated 2026).

SMILES strings stand for the structures. Values joined by “and” are separate entries in the source; they are usually repeats but may differ in a detail not shown here. Identical values can stand only once.

One data set relates to HuS-E/2 cells. Put plainly: Cell viability of HuS-E/2 cells (MTT assay). In kind it is cell-based. The settings on record: 0-1000 μg/ml AR100-DS1 for 48 h.
The next data set concerns HepG2.2.15 cells. Kind of data set: Cell viability of HepG2.2.15 cells. In kind it is cell-based.
Data set [1] deals with HBV. Put plainly: HBV DNA level in the culture medium of HepG2.2.15 cells (real-time PCR). In kind it is cell-based, Hepatitis B virus (HBV). The source says:
(§1) Continuous HBV proliferation can be achieved in HepG2.2.15 cells (RRID:CVCL_L855) stably transfected with the HBV genome of the adw2 subtype. HepG2.2.15 cells are used because of the unlimited supply and constant quality and were maintained in Dulbecco's modified Eagle medium (DMEM; Invitrogen) supplemented with 10% heat-inactivated fetal bovine serum (FBS; Thermo) plus 100 units of penicillin and […] of streptomycin per ml (both from Invitrogen).
The culture medium from drug-treated HepG2.2.15 cells is clarified by centrifugation at 1,000× g at 4° C. for 10 min, and then the supernatant is layered on top of a 20% sucrose cushion (20% sucrose, 20 mM HEPES, pH 7:4, 0.1% bovine serum albumin [BSA]) and centrifuged at 197,000× g for 3 h at 4° C. to pellet the HBV particles, which are then concentrated 100 fold to detect HBV DNA.
Total DNA is extracted with a Genomic DNA isolation kit (Nexttee Biotechnologie, Germany). Total RNA is isolated from cultured cells using TRIzol® reagent (Invitrogen). […] The results are analyzed with the iCycler iQ real-time PCR detection system (Bio-Rad). […]
(§2) To test whether AR100-DS1 had any effect on HBV genome replication, assembly, or secretion, HepG2.2.15 cells that were stably transfected with HBV genome, were used to incubate with AR 100-DS1 for 48 hours, then HBsAg and HBV DNA collected from medium were measured by ELISA and real-time PCR.
Background: Real-time PCR tracks product formation cycle by cycle.

Data set [2] relates to HBV. Put plainly: HBsAg secretion of HepG2.2.15 cells (ELISA). In kind it is cell-based, Hepatitis B virus (HBV).
Description: as §1, §2
A general note: In an ELISA, binding on a coated surface is turned into a signal by an enzyme label.

Data set [3] relates to HBV. Put plainly: HBV infectivity/entry in HuS-E/2 cells (HBsAg ELISA, HBV mRNA real-time PCR). Format: cell-based, Hepatitis B virus (HBV).
The next data set relates to SARS-COV-2 (NTU13). Kind of data set: Plaque reduction assay in Vero E6 cells. In kind it is cell-based. Particulars: 1 μM RDV*. (Plaque reduction counts the foci of infection that form in a cell layer.)
The mark [4] stands for this setting: HuS-E/2 cells, 0, 5 and 10 of AR100-DS1 during infection for 18 h, then 48 hours.

`C=C1C(=O)O[C@H]2/C=C(\C)CC3C=C(CC/C=C(\C)CC[C@H]12)C(=O)O3` (some centres unmarked) [AR100-DS1]: the cell viability result in the data set with HuS-E/2 cells and with HepG2.2.15 cells was “marked dose-dependent reduction in cell viability” throughout. Also, the “HBV DNA level in medium” value in the data set with HBV [1] (20 μg/ml AR100-DS1, 48 hours) is “significantly reduced”; in the data set on HBV [1] (40 μg/ml AR100-DS1, 48 hours) it was “significantly reduced”. In addition, the “secretion of HBsAg” value in the data set on HBV [2] (0, 20 and 40 μg/ml AR100-DS1, HepG2.2.15 cells (FIG. 1C)) is “significantly inhibited”. Further, the “secretion of HBsAg reduced to” value is 75.25% in the data set with HBV [2] (10 μg/ml AR100-DS1, 48 hours, HepG2.2.15 cells); 69.77% and 63.00% with HBV [2] (20 μg/ml AR100-DS1, 48 hours, HepG2.2.15 cells (FIGS. 1A and 1B)); 56.78% with HBV [2] (50 μg/ml AR100-DS1, 48 hours, HepG2.2.15 cells). Moreover, in the data set on HBV [3] (HuS-E/2 cells), the “entry of HBV in HuS-E/2 cells” value was “could not prevent HBV entering into HuS-E/2 cells”. For the same molecule, the “HBV mRNA expression level” value in the data set with HBV [3] (setting [4]) is on record as “neither secretion of HBsAg in the medium nor HBV mRNA expression level showed dose-dependent reduction”. Moreover, in the data set with HBV [3] (setting [4]), the “secretion of HBsAg in the medium” value is given as “neither secretion of HBsAg in the medium nor HBV mRNA expression level showed dose-dependent reduction”.
Take `CCC(CC)COC(=O)[C@H](C)N[P@](=O)(OC[C@H]1O[C@@](C#N)(c2ccc3c(N)ncnn23)[C@H](O)[C@@H]1O)Oc1ccccc1` [RDV, remdesivir]: in the data set on SARS-COV-2 (NTU13), the “Inhibition (%) to DMSO mean” value was 80%, the “Inhibition (%) to virus mean” value was determined as 82% and the “Plaque number per well mean” value came to 32.
